The test has as its system P388 leukemia ip, CD2F1 mice, survival T/C. Description: NCI In Vivo Anticancer Drug Screen. Data for tumor model P388 Leukemia (intraperitoneal) in CD2F1 (CDF1) mice. The note with it: endpoint: median survival time, higher = longer survival. The procedure, abridged:
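Mice carrying the transplanted tumor received test compound or vehicle. Survival was recorded in each group, and the value is the treated-group measurement divided by that of the vehicle-treated control group.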

Setting [1] is: dose: 12.5 mg/kg/injection, schedule: Q01DX009 (ip), vehicle: saline with Tween-80.
Setting [2] is: dose: 25.0 mg/kg/injection, schedule: Q01DX009 (ip), vehicle: saline with Tween-80.
Setting [3] is: dose: 100.0 mg/kg/injection, schedule: Q04DX003 (ip), vehicle: saline.
Where [4] appears, read: dose: 50.0 mg/kg/injection, schedule: Q01DX009 (ip), vehicle: Klucel (hydroxypropylcellulose) (HPC).
Setting [5] is: dose: 100.0 mg/kg/injection, schedule: Q01DX009 (ip), vehicle: Klucel (hydroxypropylcellulose) (HPC).
[6] abbreviates: dose: 200.0 mg/kg/injection, schedule: Q01DX009 (ip), vehicle: Klucel (hydroxypropylcellulose) (HPC).

SMILES strings stand for the structures. Values joined by “and” are separate entries in the source; they are usually repeats but may differ in a detail not shown here. Equal entries are not always repeated. Inconclusive results and toxic doses are left out.

`CC1=NN(c2ccc(S(=O)(=O)O)cc2)C(=O)C1N=Nc1ccc(-c2ccc(N=Nc3ccc(O)c(C(=O)O)c3)c(C)c2)cc1C` (stereo not given): the T/C was 100 % of control and 91 % of control (dose: 6.25 mg/kg/injection, schedule: Q01DX009 (ip), vehicle: saline with Tween-80); 99 % of control and 106 % of control and 113 % of control under setting [1]; 100 % of control and 120 % of control and 91 % of control under setting [2].

As for `Cc1c2ccccc2c(C)c2c1cc(F)c1ccccc12`, the T/C (dose: 50.0 mg/kg/injection, schedule: Q04DX003 (ip), vehicle: Klucel (hydroxypropylcellulose) (HPC)) was 105 % of control; the T/C (dose: 100.0 mg/kg/injection, schedule: Q04DX003 (ip), vehicle: Klucel (hydroxypropylcellulose) (HPC)) is 105 % of control; the T/C (dose: 200.0 mg/kg/injection, schedule: Q04DX003 (ip), vehicle: Klucel (hydroxypropylcellulose) (HPC)) is 113 % of control; the T/C (dose: 400.0 mg/kg/injection, schedule: Q04DX003 (ip), vehicle: Klucel (hydroxypropylcellulose) (HPC)) was 117 % of control.

For the compound `O=C(c1ccccc1Cl)n1oc2ccccc2c1=O`, the T/C is, setting by setting: (dose: 50.0 mg/kg/injection, schedule: Q01DX005 (ip), vehicle: Klucel (hydroxypropylcellulose) (HPC)) 97 % of control; (dose: 100.0 mg/kg/injection, schedule: Q01DX005 (ip), vehicle: Klucel (hydroxypropylcellulose) (HPC)) 110 % of control; (dose: 200.0 mg/kg/injection, schedule: Q01DX005 (ip), vehicle: Klucel (hydroxypropylcellulose) (HPC)) 106 % of control.

As to `OC(c1ccccc1)(C1CCNCC1)C1CC1` (stereo not given), the T/C is 105 % of control (dose: 12.5 mg/kg/injection, schedule: Q01DX001 (ip), vehicle: saline); 101 % of control and 97 % of control (dose: 25.0 mg/kg/injection, schedule: Q01DX001 (ip), vehicle: saline); 103 % of control and 106 % of control (dose: 50.0 mg/kg/injection, schedule: Q01DX001 (ip), vehicle: saline); 105 % of control (dose: 100.0 mg/kg/injection, schedule: Q01DX001 (ip), vehicle: Klucel (hydroxypropylcellulose) (HPC)); 102 % of control (dose: 100.0 mg/kg/injection, schedule: Q01DX001 (ip), vehicle: saline).

Turning to `Cc1c(-c2ccccc2)ccnc1/C=N/NS(=O)(=O)c1ccccc1`, the T/C is 103 % of control (dose: 50.0 mg/kg/injection, schedule: Q01DX009 (ip), vehicle: other); 97 % of control (dose: 100.0 mg/kg/injection, schedule: Q01DX009 (ip), vehicle: other); 96 % of control (dose: 200.0 mg/kg/injection, schedule: Q01DX009 (ip), vehicle: other).

In the case of `O=C(O)C(Cc1ccc(N(CCCl)CCCl)cc1)C(=O)O`, the T/C reads like this: under setting [1], 161 % of control; under setting [2], 171 % of control; (dose: 50.0 mg/kg/injection, schedule: Q01DX009 (ip), vehicle: saline with Tween-80) 189 % of control and 213 % of control.

As for `C#C/C=C/CC1OC(C(Br)CC)/C=C\CCC1Cl` (stereo not given), the T/C is, setting by setting: (dose: 2.0 mg/kg/injection, schedule: Q01DX009 (ip), vehicle: Klucel (hydroxypropylcellulose) (HPC)) 94 % of control; (dose: 4.0 mg/kg/injection, schedule: Q01DX009 (ip), vehicle: Klucel (hydroxypropylcellulose) (HPC)) 98 % of control; (dose: 8.0 mg/kg/injection, schedule: Q01DX009 (ip), vehicle: Klucel (hydroxypropylcellulose) (HPC)) 103 % of control; (dose: 16.0 mg/kg/injection, schedule: Q01DX009 (ip), vehicle: Klucel (hydroxypropylcellulose) (HPC)) 94 % of control.

With `NC(=O)/C=C/C(=O)NC(=O)Cc1ccccc1`, the T/C is, setting by setting: (dose: 1.5 mg/kg/injection, schedule: Q01DX009 (ip), vehicle: saline with Tween-80) 109 % of control; (dose: 3.0 mg/kg/injection, schedule: Q01DX009 (ip), vehicle: saline with Tween-80) 110 % of control and 119 % of control; (dose: 6.0 mg/kg/injection, schedule: Q01DX009 (ip), vehicle: saline with Tween-80) 109 % of control and 116 % of control.

Consider `O=c1[nH]c2cc(Cl)ccc2nc1/C=C(\O)c1cccc(O)c1`, for which the T/C by setting is: (dose: 15.0 mg/kg/injection, schedule: Q01DX005 (ip), vehicle: Klucel + Tween-80) 106 % of control; (dose: 30.0 mg/kg/injection, schedule: Q01DX005 (ip), vehicle: Klucel + Tween-80) 94 % of control; (dose: 60.0 mg/kg/injection, schedule: Q01DX005 (ip), vehicle: Klucel + Tween-80) 101 % of control and 88 % of control.

As for `O=[N+]([O-])c1nc(-[n+]2ccccc2)[n-]c1Br`, the T/C by setting is: under setting [3], 98 % of control; (dose: 200.0 mg/kg/injection, schedule: Q04DX003 (ip), vehicle: saline) 100 % of control; (dose: 400.0 mg/kg/injection, schedule: Q04DX003 (ip), vehicle: saline) 95 % of control.

On to `NC(N)=NS(=O)(=O)c1ccc(N2C(=O)CC3(CCCC3)C2=O)cc1`, for which the T/C was 99 % of control under setting [4], 98 % of control under setting [5] and 112 % of control under setting [6].

With `COC(=O)c1ccccc1OC(C)=O`, the T/C by setting is: (dose: 25.0 mg/kg/injection, schedule: Q01DX009 (ip), vehicle: suspension in saline) 99 % of control; (dose: 50.0 mg/kg/injection, schedule: Q01DX009 (ip), vehicle: suspension in saline) 99 % of control; (dose: 100.0 mg/kg/injection, schedule: Q01DX009 (ip), vehicle: suspension in saline) 96 % of control; (dose: 200.0 mg/kg/injection, schedule: Q01DX009 (ip), vehicle: suspension in saline) 100 % of control.

For `CCC12CCCN3CCC4(c5ccc(OC)cc5N(C)C4C(O)(OC(C)=O)C1OC(C)O)C32` (stereo not given), the T/C is 100 % of control (dose: 50.0 mg/kg/injection, schedule: Q01DX005 (ip), vehicle: saline with Tween-80) and 87 % of control (dose: 100.0 mg/kg/injection, schedule: Q01DX005 (ip), vehicle: saline with Tween-80).

Take `C=C1CC/C=C(\C)C(=O)C(O)C2C1CC2(C)C` (stereo not given): the T/C by setting is: (dose: 0.37 mg/kg/injection, schedule: Q01DX009 (ip), vehicle: saline + alcohol) 104 % of control; (dose: 0.75 mg/kg/injection, schedule: Q01DX009 (ip), vehicle: saline + alcohol) 104 % of control; (dose: 1.5 mg/kg/injection, schedule: Q01DX009 (ip), vehicle: saline + alcohol) 106 % of control; (dose: 3.0 mg/kg/injection, schedule: Q01DX009 (ip), vehicle: saline + alcohol) 105 % of control; (dose: 6.0 mg/kg/injection, schedule: Q01DX009 (ip), vehicle: saline + alcohol) 88 % of control.

With `COc1cccc2c1C(=O)c1c(O)c3c(c(O)c1C2=O)C[C@@](O)(/C(CO)=N/NS(=O)(=O)c1ccc(C)cc1)C[C@@H]3OC1CC(N)C(O)C(C)O1` (stereo not given in full), the T/C is 105 % of control (dose: 0.2 mg/kg/injection, schedule: Q01DX009 (ip), vehicle: water); 112 % of control (dose: 0.39 mg/kg/injection, schedule: Q01DX009 (ip), vehicle: water); 94 % of control (dose: 0.78 mg/kg/injection, schedule: Q01DX009 (ip), vehicle: water); 116 % of control and 118 % of control (dose: 1.56 mg/kg/injection, schedule: Q01DX009 (ip), vehicle: water).

Take `CN1CCOC(c2ccccc2)c2ccsc2CC1` (stereo not given): the T/C reads like this: (dose: 60.0 mg/kg/injection, schedule: Q01DX005 (ip), vehicle: saline with Tween-80) 98 % of control; (dose: 120.0 mg/kg/injection, schedule: Q01DX005 (ip), vehicle: saline with Tween-80) 93 % of control.

`CC(/C=C/c1ccccc1)=N\Nc1c(F)c(F)c(F)c(F)c1F`: the T/C was 103 % of control under setting [4], 102 % of control under setting [5] and 100 % of control under setting [6].

Regarding `CCCCCCOC(=O)CC1CC(C(C)=O)C1(C)C` (stereo not given), the T/C was 94 % of control under setting [4]; 106 % of control under setting [5]; 109 % of control under setting [6]; 117 % of control (dose: 400.0 mg/kg/injection, schedule: Q01DX009 (ip), vehicle: Klucel (hydroxypropylcellulose) (HPC)).

In the case of `CCC1(c2cccc(C=O)c2)CCCCN(C)C1` (stereo not given), the T/C runs as follows: (dose: 12.5 mg/kg/injection, schedule: Q01DX005 (ip), vehicle: saline) 99 % of control; (dose: 25.0 mg/kg/injection, schedule: Q01DX005 (ip), vehicle: saline) 97 % of control; (dose: 50.0 mg/kg/injection, schedule: Q01DX005 (ip), vehicle: saline) 97 % of control.

On to `COc1cc2c(cc1OC)C1CC(CC3CCCCN31)OC(=O)/C=C\c1ccc(O)c-2c1` (stereo not given), for which the T/C is 105 % of control (dose: 25.0 mg/kg/injection, schedule: Q04DX003 (ip), vehicle: saline); 111 % of control (dose: 50.0 mg/kg/injection, schedule: Q04DX003 (ip), vehicle: saline); 102 % of control and 86 % of control under setting [3].

For the compound `CC(=O)OC(CCC1CO1)OC(C)=O` (stereo not given), the T/C runs as follows: (dose: 50.0 mg/kg/injection, schedule: Q01DX009 (ip), vehicle: saline) 100 % of control; (dose: 100.0 mg/kg/injection, schedule: Q01DX009 (ip), vehicle: saline) 98 % of control; (dose: 200.0 mg/kg/injection, schedule: Q01DX009 (ip), vehicle: saline) 100 % of control.

(Values after PubChem BioAssay AID330 (DTP/NCI, 2004).)
